# Test system: HCV replicon, genotype-1a variant with glutamine 30 changed to glutamate in the NS5A protein
# Test: microbe, parasite or virus in culture
# Type: cell-based, HCV genotype 1a
# Conditions: HCV replicon genotype 1a Q30E (Q→E) variant; test compound titrated with an NS5A-targeting compound (BMS-790052 fixed at 200 nM); ranking of synergist activity
# In short: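 Synergy was assessed by combining several fixed amounts of an NS5A-targeting compound with a titration of the second compound of interest.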
row,SMILES,Fold-Synergistic 1a (Q30E) [fold]
1,CCCC(C)(C)C(=O)N[C@H](c1nc(-c2ccc(-c3ccc(-c4c[nH]c([C@@H](NC(=O)C(C)(C)CCC)C(C)(C)C)n4)cc3)cc2)c[nH]1)C(C)(C)C [Compound S-281],>100
2,CC(C)(C)[C@H](NC(=O)C(F)(F)c1ccccc1)c1nc(-c2ccc(-c3ccc(-c4c[nH]c([C@@H](NC(=O)C(F)(F)c5ccccc5)C(C)(C)C)n4)cc3)cc2)c[nH]1 [Compound S-282],>100
3,CC(C)(C)[C@H](NC(=O)C(F)(F)C(O)c1cccnc1)c1nc(-c2ccc(-c3ccc(-c4c[nH]c([C@@H](NC(=O)C(F)(F)C(O)c5cccnc5)C(C)(C)C)n4)cc3)cc2)c[nH]1 (stereo partly drawn) [Compound S-283],>100
4,CCC(F)(F)C(=O)N[C@H](c1nc(-c2ccc(-c3ccc(-c4c[nH]c([C@@H](NC(=O)C(F)(F)CC)C(C)(C)C)n4)cc3)cc2)c[nH]1)C(C)(C)C [Compound S-284],>100
5,CC(C)(C)[C@H](NC(=O)C1(c2ccc(F)cc2)CC1(C)C)c1nc(-c2ccc(-c3ccc(-c4c[nH]c([C@@H](NC(=O)C5(c6ccc(F)cc6)CC5(C)C)C(C)(C)C)n4)cc3)cc2)c[nH]1 (stereo partly drawn) [Compound S-285],>100
6,CC(C)(C)[C@H](NC(=O)C1(F)CCCCC1)c1nc(-c2ccc(-c3ccc(-c4c[nH]c([C@@H](NC(=O)C5(F)CCCCC5)C(C)(C)C)n4)cc3)cc2)c[nH]1 [Compound S-286],>100
7,C=CCC(F)(F)C(=O)N[C@H](c1nc(-c2ccc(-c3ccc(-c4c[nH]c([C@@H](NC(=O)C(F)(F)CC=C)C(C)(C)C)n4)cc3)cc2)c[nH]1)C(C)(C)C [Compound S-287],>100
8,Cc1ccc(C(F)(F)C(=O)N[C@H](c2nc(-c3ccc(-c4ccc(-c5c[nH]c([C@@H](NC(=O)C(F)(F)c6ccc(C)cc6)C(C)(C)C)n5)cc4)cc3)c[nH]2)C(C)(C)C)cc1 [Compound S-288],>100
9,COc1cccc(C2(C(=O)N[C@H](c3nc(-c4ccc(-c5ccc(-c6c[nH]c([C@@H](NC(=O)C7(c8cccc(OC)c8)CCC(C)CC7)C(C)(C)C)n6)cc5)cc4)c[nH]3)C(C)(C)C)CCC(C)CC2)c1 (stereo partly drawn) [Compound S-289],>100
10,CC(C)(C)[C@H](NC(=O)C1CCN(c2cccc(C#N)c2)C1=O)c1nc(-c2ccc(-c3ccc(-c4c[nH]c([C@@H](NC(=O)C5CCN(c6cccc(C#N)c6)C5=O)C(C)(C)C)n4)cc3)cc2)c[nH]1 (stereo partly drawn) [Compound S-291],>100
11,C[C@H](C(=O)OC(C)(C)C)[C@@H](C)C(=O)N[C@H](c1nc(-c2ccc(-c3ccc(-c4c[nH]c([C@@H](NC(=O)[C@H](C)[C@H](C)C(=O)OC(C)(C)C)C(C)(C)C)n4)cc3)cc2)c[nH]1)C(C)(C)C [Compound S-292],>100
12,COC12CCC(C(=O)N[C@H](c3nc(-c4ccc(-c5ccc(-c6c[nH]c([C@@H](NC(=O)C78CCC(OC)(CC7)CC8)C(C)(C)C)n6)cc5)cc4)c[nH]3)C(C)(C)C)(CC1)CC2 [Compound S-293],>100
13,COC(=O)C1([C@H](CC(C)C)C(=O)N[C@H](c2nc(-c3ccc(-c4ccc(-c5c[nH]c([C@@H](NC(=O)[C@@H](CC(C)C)C6(C(=O)OC)CC=CC6)C(C)(C)C)n5)cc4)cc3)c[nH]2)C(C)(C)C)CC=CC1 [Compound S-294],>100
14,CC(=O)N1CCC(C(=O)N[C@H](c2nc(-c3ccc(-c4ccc(-c5c[nH]c([C@@H](NC(=O)C6CCN(C(C)=O)CC6)C(C)(C)C)n5)cc4)cc3)c[nH]2)C(C)(C)C)CC1 [Compound S-297],>10
15,CC1(C(=O)N[C@H](c2nc(-c3ccc(-c4ccc(-c5c[nH]c([C@@H](NC(=O)C6(C)CC7C=CC6C7)C(C)(C)C)n5)cc4)cc3)c[nH]2)C(C)(C)C)CC2C=CC1C2 (stereo partly drawn) [Compound S-298],>100
16,CC(C)(C)OC(=O)N[C@]1(C(=O)N[C@H](c2nc(-c3ccc(-c4ccc(-c5c[nH]c([C@@H](NC(=O)[C@@]6(NC(=O)OC(C)(C)C)C[C@H]6CC(F)F)C(C)(C)C)n5)cc4)cc3)c[nH]2)C(C)(C)C)C[C@H]1CC(F)F [Compound W-1],>100
17,CC(C)(C)OC(=O)N[C@]1(C(=O)N[C@H](c2nc(-c3ccc(-c4ccc(-c5c[nH]c([C@@H](NC(=O)[C@@]6(NC(=O)OC(C)(C)C)C[C@@H]6c6ccccc6)C(C)(C)C)n5)cc4)cc3)c[nH]2)C(C)(C)C)C[C@@H]1c1ccccc1 [Compound W-2],>100
18,CC(C)(C)OC(=O)N[C@]1(C(=O)N[C@H](c2nc(-c3ccc(-c4ccc(-c5c[nH]c([C@@H](NC(=O)[C@@]6(NC(=O)OC(C)(C)C)C[C@H]6C6CC6)C(C)(C)C)n5)cc4)cc3)c[nH]2)C(C)(C)C)C[C@H]1C1CC1 [Compound W-3],>100

row,SMILES,Fold-Synergistic 1a (Q30E) [fold]
1,C=C[C@H]1C[C@@]1(NC(=O)OC(C)(C)C)C(=O)N[C@H](c1nc(-c2ccc(-c3ccc(-c4c[nH]c([C@@H](NC(=O)[C@]5(NC(=O)OC(C)(C)C)C[C@@H]5C=C)C(C)(C)C)n4)cc3)cc2)c[nH]1)C(C)(C)C [Compound W-4],>100
2,C=C[C@@H]1C[C@]1(NC(=O)OC(C)(C)C)C(=O)N[C@H](c1nc(-c2ccc(-c3ccc(-c4c[nH]c([C@@H](NC(=O)[C@@]5(NC(=O)OC(C)(C)C)C[C@H]5C=C)C(C)(C)C)n4)cc3)cc2)c[nH]1)C(C)(C)C [Compound W-7],>100
3,CC(C)(C)OC(=O)N[C@]1(C(=O)N[C@H](c2nc(-c3ccc(-c4ccc(-c5c[nH]c([C@@H](NC(=O)[C@@]6(NC(=O)OC(C)(C)C)C[C@H]6c6ccccc6)C(C)(C)C)n5)cc4)cc3)c[nH]2)C(C)(C)C)C[C@H]1c1ccccc1 [Compound W-8],>100
4,CC(C)(C)OC(=O)N[C@H]1CCC[C@@H]1C(=O)N[C@H](c1nc(-c2ccc(-c3ccc(-c4c[nH]c([C@@H](NC(=O)[C@H]5CCC[C@@H]5NC(=O)OC(C)(C)C)C(C)(C)C)n4)cc3)cc2)c[nH]1)C(C)(C)C [Compound W-9],>100
5,CN(C)C(=O)C(=O)N[C@H](c1nc(-c2ccc(-c3ccc(-c4c[nH]c([C@@H](NC(=O)C(=O)N(C)C)C(C)(C)C)n4)cc3)cc2)c[nH]1)C(C)(C)C [Compound W-10],>100
6,CC(C)(C)OC(=O)N[C@@H]1CCC[C@H]1C(=O)N[C@H](c1nc(-c2ccc(-c3ccc(-c4c[nH]c([C@@H](NC(=O)[C@@H]5CCC[C@H]5NC(=O)OC(C)(C)C)C(C)(C)C)n4)cc3)cc2)c[nH]1)C(C)(C)C [Compound W-12],>100
7,CC(C)(C)[C@H](NC(=O)C(=O)c1cccs1)c1nc(-c2ccc(-c3ccc(-c4c[nH]c([C@@H](NC(=O)C(=O)c5cccs5)C(C)(C)C)n4)cc3)cc2)c[nH]1 [Compound W-19],>100
8,CC(C)(C)[C@H](NC(=O)C(=O)c1ccco1)c1nc(-c2ccc(-c3ccc(-c4c[nH]c([C@@H](NC(=O)C(=O)c5ccco5)C(C)(C)C)n4)cc3)cc2)c[nH]1 [Compound W-20],>100
9,CC(C)(C)[C@H](NC(=O)C(=O)N1CCCC1)c1nc(-c2ccc(-c3ccc(-c4c[nH]c([C@@H](NC(=O)C(=O)N5CCCC5)C(C)(C)C)n4)cc3)cc2)c[nH]1 [Compound W-21],>100
10,CC(C)(C)[C@H](NC(=O)C(=O)N1CCC(F)(F)C1)c1nc(-c2ccc(-c3ccc(-c4c[nH]c([C@@H](NC(=O)C(=O)N5CCC(F)(F)C5)C(C)(C)C)n4)cc3)cc2)c[nH]1 [Compound W-22],>100
11,CC(C)(C)[C@H](NC(=O)C(=O)N1CCOCC1)c1nc(-c2ccc(-c3ccc(-c4c[nH]c([C@@H](NC(=O)C(=O)N5CCOCC5)C(C)(C)C)n4)cc3)cc2)c[nH]1 [Compound W-25],>100
12,CC(C)(C)[C@H](NC(=O)C(=O)N1CCC(F)CC1)c1nc(-c2ccc(-c3ccc(-c4c[nH]c([C@@H](NC(=O)C(=O)N5CCC(F)CC5)C(C)(C)C)n4)cc3)cc2)c[nH]1 [Compound W-26],>100
13,CC(C)(C)[C@H](NC(=O)C(=O)N1CC[C@H](F)C1)c1nc(-c2ccc(-c3ccc(-c4c[nH]c([C@@H](NC(=O)C(=O)N5CC[C@H](F)C5)C(C)(C)C)n4)cc3)cc2)c[nH]1 [Compound W-27],>100
14,CC(C)(C)[C@H](NC(=O)C(=O)N1CC(F)(F)C1)c1nc(-c2ccc(-c3ccc(-c4c[nH]c([C@@H](NC(=O)C(=O)N5CC(F)(F)C5)C(C)(C)C)n4)cc3)cc2)c[nH]1 [Compound W-28],>100
15,CC(C)(C)[C@H](NC(=O)C(=O)N1CCCCCC1)c1nc(-c2ccc(-c3ccc(-c4c[nH]c([C@@H](NC(=O)C(=O)N5CCCCCC5)C(C)(C)C)n4)cc3)cc2)c[nH]1 [Compound W-32],>100
16,CCN(CC)C(=O)C(=O)N[C@H](c1nc(-c2ccc(-c3ccc(-c4c[nH]c([C@@H](NC(=O)C(=O)N(CC)CC)C(C)(C)C)n4)cc3)cc2)c[nH]1)C(C)(C)C [Compound W-33],>100
17,CN1CCN(C(=O)C(=O)N[C@H](c2nc(-c3ccc(-c4ccc(-c5c[nH]c([C@@H](NC(=O)C(=O)N6CCN(C)CC6)C(C)(C)C)n5)cc4)cc3)c[nH]2)C(C)(C)C)CC1 [Compound W-35],>100
18,CCN(CC(F)(F)F)C(=O)C(=O)N[C@H](c1nc(-c2ccc(-c3ccc(-c4c[nH]c([C@@H](NC(=O)C(=O)N(CC)CC(F)(F)F)C(C)(C)C)n4)cc3)cc2)c[nH]1)C(C)(C)C [Compound W-37],>100
